Columns and labels:
RAF1 = test: HSP90 Client Protein Degradation Flow Cytometry Assay, RAF1 in HEK-293 cells; type: cell-based, human
Procedure: (§1) MV4-11 cells were plated in a 24-well tissue culture plate at a density of 350,000 cells/450 μL/well and incubated in 37° C./5% CO2 for 1 hr. Cells were then treated with compounds at various concentrations and incubated in 37° C./5% CO2 for 24 hr. Cells were harvested, washed once, counted and 200 μL of 1% paraformaldehyde/PBS was added and incubated for 15 min at room temperature. 200 μL of 1×PBS/0.4% Triton X-100 was added and incubated for 15 min at 4° C. Cells were washed three times and resuspended in 50 μL of 1×PBS/0.2% Triton X-100. 2 μL/10^6 cells of anti-BRD4 antibody (ABCAM, #128874) was added and mixed by pipetting up and down. Cells were incubated for 30 min at room temperature in the dark, washed three times and resuspended in 50 μL of 1×PBS/0.2% Triton X-100. Goat anti-rabbit IgG H&L antibody (1:2000 dilution) was added and mixed by pipetting up and down and incubated for 30 min at room temperature in the dark. Finally, cells were washed three times and resuspended in 200 μL of PBS for flow cytometric analysis.
(§2) Similar flow cytometry experiments for ERBB2 in BT-474 human breast carcinoma cells (ATCC, #HTB-20) and IGF1R, EGFR and RAF1 in HEK-293 human embryonic kidney (ATCC, #CRL-1573) were performed using anti-ERBB2 (R&D, #FAB1129P), anti-IGF1R (Cell Signaling Technology, #9750), anti-EGFR (Cell Signaling Technology, #139690) and anti-RAF1 (ABCAM, #ab181115) antibodies.

MV4-11 cells = test: MV4-11 Cell Cytotoxicity Assay; type: cell-based, human; conditions: 72 hr, CCK-8
From the text: % Inhibition=100−(D−B)/(S−B)*100%.
S: The absorbance of the maximum (cells with DMSO)
B: The absorbance of the minimum (medium with DMSO)

ERBB2 = test: HSP90 Client Protein Degradation Flow Cytometry Assay, ERBB2 in BT-474 cells; type: cell-based, human
Procedure: as §1, §2

EGFR = test: HSP90 Client Protein Degradation Flow Cytometry Assay, EGFR in HEK-293 cells; type: cell-based, human
Procedure: as §1, §2

SU-DHL-4 xenograft = test: SU-DHL-4 DLBCL tumor xenograft study in mice
Procedure: Tumor Xenograft Studies in Mice
5×10^6 MV-4-11 or 1×10^7 SU-DHL-4 cells were collected and re-suspended in 0.1 mL of serum-free media with Matrigel (1:1 v/v) per mouse for subcutaneous inoculation in isoflurane anesthetized male BALB/c nude or C.B-17 scid mice, respectively (treated in accordance with AAALAC animal welfare guidelines). When the average tumor volumes reached 100-200 mm^3, tumor volume outliers were removed and the remaining animals randomly divided into groups of 6-8 with similar average tumor volumes in each group. […] Animals were intravenously dosed at 25 mg/kg, 50 mg/kg or 100 mg/kg 1×/week for 3 or 4 weeks. The appearance and behavior of each mouse was observed and recorded daily. Body weights and tumor volumes were measured and recorded every 2-4 days and the results were expressed as group means±SEM. Pairwise statistical comparisons between groups were performed by one-way ANOVA, and p<0.05 was considered statistically significant.

BRD4 = biological target: T1, BRD4 (Homo sapiens, UniProt O60885); test: BRD4 Western Blotting in MV4-11 cells; type: cell-based
T1 construct: endogenous in cells; host or cells: MV4-11
Procedure: Cells were then collected by centrifugation, washed one time with cold PBS, supernatants aspirated and cell pellets lysed with 4° C. RIPA lysis buffer containing a protease/phosphatase inhibitor cocktail. The total protein concentrations of cell lysates were determined by BCA Protein Assay kit. Samples were normalized for equivalent protein concentrations, 5× loading buffer added and heated to 100° C. for 10 min and cooled to room temperature. 20 μl of each sample/well was loaded on a SDS-PAGE gel and electrophoresed for 20 min at 80 V, then 120 V for 1.5 hr. Gels were then electroblotted to nitrocellulose membranes using a wet-transfer method at 250 mA for 2.5 hr. Membranes were incubated with blocking buffer for 1 hr and washed 3 times with TBST for 5 min. Then membranes were incubated with anti-BRD4 (Cell Signaling Technology, #13440) and anti-beta-Actin (Cell Signaling Technology, #3700) antibodies diluted in blocking buffer per the manufacturer's recommendation at 4° C. overnight. After washing 3 times, blots were incubated with the appropriate labeled secondary antibody for 1 hr at room temperature and washed again. Images were read on a LI-COR and the optical density values of bands determined by ImageJ software. Data was analyzed using GraphPad Prism 7.0.

IGF1R = test: HSP90 Client Protein Degradation Flow Cytometry Assay, IGF1R in HEK-293 cells; type: cell-based, human
Procedure: as §1, §2

[1] = test system: HSP90 client proteins (ERBB2, IGF1R, EGFR, RAF1); test: HSP90 Client Protein Degradation Flow Cytometry Assay, all clients together; type: cell-based, human; conditions: versus 59 nM for BRD4 degradation by western blotting in MV4-11 cells
Procedure: as §1
as §2, with “antibodies. […]” for “antibodies.”

[2] = 100 mg/kg intravenously 1×/week, after 4 weeks of dosing

Molecule `Cc1sc2c(c1C)C(c1ccc(Cl)cc1)=N[C@@H](CC(=O)N1CCC(CN3CCN(Cc4ccc(-n5c(O)nnc5-c5cc(C(C)C)c(O)cc5O)cc4)CC3)CC1)c1nnc(C)n1-2.Cl` [Compound 74, (S)-2-(4-(4-chlorophenyl)-2,3,9-trimethyl-6H-thieno[3,2-f][1,2,4]triazolo[4,3-a][1,4]diazepin-6-yl)-1-(4-((4-(4-(3-(2,4-dihydroxy-5-isopropylphenyl)-5-hydroxy-4H-1,2,4-triazol-4-yl)benzyl)piperazin-1-yl)methyl)piperidin-1-yl)ethan-1-one hydrochloride] has an IC50 (RAF1) of 762 nM, an IC50 (MV4-11 cells) of under 100 nM and an IC50 (ERBB2) of 340 nM. The IC50 (EGFR) was 405 nM, the tumor growth inhibition (SU-DHL-4 xenograft; [2]) was “significant tumor growth inhibition” and the “tumor vs control (T/C) value” (SU-DHL-4 xenograft; [2]) was 41%. For the same molecule, the “animal deaths and body weights” value (SU-DHL-4 xenograft; any dose level) was “No animal deaths or significant effects on body weights were observed”, the “BRD4 degradation by western blotting with proteasome inhibitor bortezomib” value (BRD4; MV4-11 cells treated with both compound 074 and bortezomib) was “BRD4 degradation was blocked” and the “BRD4 degradation by western blotting” value (BRD4; MV4-11 cells, 24 hr, 100 and 300 nM) was “BRD4 degradation was observed”. For the same molecule, the DC50 (BRD4; MV4-11 cells, read-out: IC50 value for BRD4 degradation determined by western blotting) was 59 nM, the IC50 (IGF1R) was 1060 nM and the “IC50 for HSP90 clients higher than the IC50 value for BRD4 degradation” value [1] was 6- to 18 fold.
